Results reported in patent US6277876A, “Matrix metalloproteinase inhibitors” (Leo Pharmaceutical Products Ltd. A/S, priority 1998, dated 2001).

Experiments:
MMP-9 = target: T1, MMP-9 (Homo sapiens, UniProt P14780); experiment: In vitro inhibition of MMPs by gelatine zymography (MMP-9); type: biochemical; details: concentration that inhibited approximately half of the maximal enzymatic activity; MMPs from MCF-7 conditioned media in gelatine SDS gels, incubated overnight at 37° C., pH 7.5; read-out: In vitro inhibition of matrix metalloproteinases (nM) MMP-9
T1 construct: matrix metalloproteinases were obtained from culture media conditioned by MCF-7 human breast cancer cells; endogenous in cells; host or cells: MCF-7 human breast cancer cells (conditioned culture medium)
T1 sequence (P14780 94-707): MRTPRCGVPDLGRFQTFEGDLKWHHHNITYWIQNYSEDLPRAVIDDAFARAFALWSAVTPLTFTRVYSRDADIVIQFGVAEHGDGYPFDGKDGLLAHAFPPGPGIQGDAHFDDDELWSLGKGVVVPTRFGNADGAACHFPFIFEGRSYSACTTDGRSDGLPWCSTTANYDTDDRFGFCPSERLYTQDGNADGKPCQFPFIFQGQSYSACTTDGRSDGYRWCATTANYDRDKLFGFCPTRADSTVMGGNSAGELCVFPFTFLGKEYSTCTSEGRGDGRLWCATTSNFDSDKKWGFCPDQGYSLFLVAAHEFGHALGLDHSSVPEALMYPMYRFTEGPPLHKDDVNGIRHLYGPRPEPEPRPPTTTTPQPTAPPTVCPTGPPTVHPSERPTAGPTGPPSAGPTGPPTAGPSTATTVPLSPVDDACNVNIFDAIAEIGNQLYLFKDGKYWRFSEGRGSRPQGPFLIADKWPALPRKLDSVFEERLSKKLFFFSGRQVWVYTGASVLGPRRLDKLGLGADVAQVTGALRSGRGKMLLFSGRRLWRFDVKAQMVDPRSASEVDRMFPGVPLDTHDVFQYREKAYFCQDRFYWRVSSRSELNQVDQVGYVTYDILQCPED
Procedure: (§1) The compounds were tested in vitro using the following procedure: matrix metalloproteinases were obtained from culture media conditioned by MCF-7 human breast cancer cells and separated by electrophoresis on SDS-acrylamide gels (7.0%) copolymerised with gelatine (1 mg/ml, Sigma, Mo., USA). The gels containing the MMPs were then incubated with the test compounds overnight in 10 ml buffer (50 mM tris-HCl, pH 7.5, 200 mM NaCl, 5 mM CaCl2, 1 μM ZnCl2, 0.002% NaN3) at 37° C. The gels were stained for 60 min with 0.5% Coomassie brilliant blue R-250 in 10% acetic acid, destained with 10% acetic acid, incubated with 5% glycerol, and dried with a gel drier. The molar concentrations that inhibited approximately half of the maximal enzymatic activity were then determined.

MMP-2/3 = experiment: In vitro inhibition of MMPs by gelatine zymography (MMP-2/3); type: biochemical, human; details: concentration that inhibited approximately half of the maximal enzymatic activity; MMPs from MCF-7 conditioned media in gelatine SDS gels, incubated overnight at 37° C., pH 7.5; read-out: In vitro inhibition of matrix metalloproteinases (nM) MMP-2/3
Procedure: as §1

Structure (SMILES)	IC50 (MMP-9)	IC50 (MMP-2/3)
CNC(=S)[C@H](Cc1ccccc1)NC(=O)[C@@H](CC(=O)NO)CC(C)C [Example 3, N^4 -Hydroxy-2(R)-isobutyl-N^1-[1(S)-(methylthiocarbamoyl)-2-phenylethyl]-succinamide]	1 nM	1 nM
CNC(=S)[C@H](Cc1ccccc1)NC(=O)[C@H](CCCc1ccccc1)CC(=O)NO [Example 4, N^4 -Hydroxy-N^1-[1(S)-(methylthiocarbamoyl)-2-Rhenylethyl]-2(R)-phenylpropyl-succinamide]	1 nM	1 nM
O=C(C[C@@H](CCCc1ccccc1)C(=O)N[C@@H](Cc1ccccc1)C(=S)NCCCc1ccccc1)NO [Example 5]	1 nM	1 nM
CNC(=O)[C@H](Cc1ccccc1)NC(=O)[C@@H](CC(=O)NO)CC(C)C [Comparator 1, N^1 -Hydroxy-3R-isobutyl-N^4-[1S-(methylcarbamoyl)-2-phenylethyl]-succinamide, reference compound]	10 nM	
